Target: acetylcholinesterase enzyme (Homo sapiens, UniProt P22303)
Assay: Electrochemical sensor with acetylthiocholine reservoir in buffer containing acetylcholinesterase; inhibitor added, then sensor moved to fresh buffer
Format: biochemical
Details: 20 mM PBS, pH 7.4, 1 U/mL acetylcholinesterase, FIG. 13
Method: In this example, a buffer was created to simulate endogenous cholinesterase activity in the interstitial fluid of a test subject. A sensor similar to that described in Example 6 was created with 100 nL of 1 M acetylthiocholine in the reactant reservoir. The sensor was placed in a buffer solution of 20 mM PBS, pH 7.4, and 1 U/mL of acetylcholinesterase enzyme to simulate a test subject. A reversible acetylcholinesterase inhibitor (Neostigmine Bromide) was then added to the buffer solution to simulate an organophosphate. The sensor was then removed from the buffer solution containing the inhibitor and placed in fresh buffer solution.

Chain of acetylcholinesterase enzyme (P22303 32-614, species assumed): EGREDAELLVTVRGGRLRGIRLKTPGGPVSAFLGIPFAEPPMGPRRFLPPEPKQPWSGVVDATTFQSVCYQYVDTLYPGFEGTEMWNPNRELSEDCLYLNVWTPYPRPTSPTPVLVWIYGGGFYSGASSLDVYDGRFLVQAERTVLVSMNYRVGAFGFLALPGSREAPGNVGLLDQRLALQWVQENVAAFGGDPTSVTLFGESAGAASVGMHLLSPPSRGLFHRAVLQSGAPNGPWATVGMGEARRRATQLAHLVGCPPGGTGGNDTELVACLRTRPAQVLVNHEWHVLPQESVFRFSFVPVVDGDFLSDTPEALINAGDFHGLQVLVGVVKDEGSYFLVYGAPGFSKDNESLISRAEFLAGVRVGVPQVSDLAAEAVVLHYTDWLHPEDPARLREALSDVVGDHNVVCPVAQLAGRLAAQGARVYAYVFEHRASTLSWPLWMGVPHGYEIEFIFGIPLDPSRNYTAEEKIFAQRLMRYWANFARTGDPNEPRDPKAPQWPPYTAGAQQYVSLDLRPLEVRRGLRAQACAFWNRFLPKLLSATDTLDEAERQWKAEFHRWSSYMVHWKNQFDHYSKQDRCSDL

CN(C)C(=O)Oc1cccc([N+](C)(C)C)c1 [Neostigmine Bromide]
sensor signal created by acetylcholinesterase interacting with acetylthiocholine, after addition of the inhibitor (100 nL of 1 M acetylthiocholine in reservoir): fell off after the addition of the inhibitor
sensor signal after sensor removed from inhibitor solution and placed in fresh buffer (reversibility) (fresh buffer): the signal rebounded
